Assay results reported in patent US8217073B2, “Pyrrole derivatives as therapeutic compounds” (Myrexis, Inc., priority 2005, dated 2012).
Several values for one entry are separate records, joined by “and”; a condition that tells them apart may be missing. Equal entries are not always repeated.

Assays:
[1] = test system: Aβ40 secretion; assay: Aβ40 secretion by H4 cells expressing APP695, sandwich ELISA; assay type: cell-based, human; conditions: medium collected at 24 or 48 hours, several numbers = independent sets of assays; for IC50: about 1 μM to about 100 μM; for inhibition at 100 µM / % Inhibition of Aβ40 Secretion @ 100 μM: test compound 100 μM vs DMSO control
Protocol: (§1) The present invention provides compositions and methods for lowering Aβ42 levels. To test whether compounds and compositions are capable of modulating Aβ levels in cultured cells, sandwich enzyme-linked immunosorbent assays (ELISAs) are employed to measure secreted Aβ (Aβ42 and/or Aβ40 levels). In this example, H4 cells expressing wide type APP695 are seeded at 200,000 cells per well in 6 well plates, and incubated at 37° C. with 5% CO2 overnight. Cells are treated with 1.5 ml medium containing vehicle (DMSO) or a test compound at 1.25 μM, 2.5 μM, 5.0 μM and 10.0 μM (as well as other concentration if desirable) for 24 hours or 48 hours. The supernatant from treated cells is collected into eppendorf tubes and frozen at −80° C. for future analysis.
(§2) The amyloid peptide standard is reconstituted and frozen samples are thawed. The samples and standards are diluted with appropriate diluents and the plate is washed 4 times with Working Wash Buffer and patted dry on a paper towel. 100 μL per well of peptide standards, controls, and dilutions of samples to be analyzed is added. The plate is incubated for 2 hours while shaking on an orbital plate shaker at RT. The plate is then washed 4 times with Working Wash Buffer and patted dry on a paper towel. Detection Antibody Solution is poured into a reservoir and 100 μL/well of Detection Antibody Solution is immediately added to the plate. The plate is incubated at RT for 2 hours while shaking and then washed four times with Working Wash Buffer and patted dry on a paper towel. Secondary Antibody Solution is then poured into a reservoir and 100 μL/well of Secondary Antibody Solution is immediately added to the plate. The plate is incubated at RT for 2 hours with shaking, washed 5 times with Working Wash Buffer, and patted dry on a paper towel.
(§3) 100 μL of stabilized chromogen is added to each well and the liquid in the wells begins to turn blue. The plate is incubated for 30 minutes at room temperature and in the dark. 100 μL of stop solution is added to each well and the plate is tapped gently to mix resulting in a change of solution color from blue to yellow. The absorbance of each well is read at 450 nm having blanked the plate reader against a chromogen blank composed of 100 μL each of stabilized chromogen and stop solution. The plate is read within 2 hours of adding the stop solution. The absorbance of the standards is plotted against the standard concentration and the concentrations of unknown samples and controls are calculated.
(§4) The present invention provides compositions and methods for lowering Aβ42 levels. To test whether compounds and compositions are capable of modulating Aβ levels, sandwich enzyme-linked immunosorbent assays (ELISAs) is employed to measure secreted Aβ42 and/or Aβ40 levels. In this example, H4 cells expressing wide type APP695 are seeded at 200,000 cells per well in 6 well plates, and incubated at 37° C. with 5% CO2 overnight. Cells are treated with 1.5 mL medium containing vehicle (DMSO) or a test compound at 1.25 μM, 2.5 μM, 5.0 μM and 10.0 μM concentration for 24 hours or 48 hours. The supernatant from treated cells is collected into eppendorf tubes and frozen at −80° C. for future analysis.
(§5) 130 μL per well of samples, standards, and blanks is added to a 96-well polypropylene plate. […] of samples, standards, and blanks from the polypropylene plate is added to the antibody-coated plates. The strip-holder with the appropriate number of strips is applied to the antibody-coated plates and the strips are covered with an adhesive sealer. The plate is then incubated 3 hours at room temperature while shaking on an orbital plate shaker.
(§6) The first antibody solution is prepared with Conjugate Diluent 1 at 1:100 ratio. Each well of the antibody-coated plates is washed 5 times with 400 μL washing solution and 100 μL of the prepared first antibody solution is added to each well. […]

[2] = test system: Aβ42 secretion; assay: Aβ42 secretion by H4 cells expressing APP695, sandwich ELISA; assay type: cell-based, human; conditions: medium collected at 24 or 48 hours, several numbers = independent sets of assays; for IC50: about 1 μM to about 100 μM; for inhibition at 100 µM / % Inhibition of Aβ42 Secretion @ 100 μM: test compound 100 μM vs DMSO control
Protocol: as §1, §2, §3, §4, §5, §6

Structure (SMILES)	IC50 ([1]; Homo sapiens) [µM]	IC50 [1]	IC50 ([2]; Homo sapiens) [µM]	IC50 [2] [µM]	inhibition at 100 µM ([1]; Homo sapiens) [%]	% Inhibition of Aβ40 Secretion @ 100 μM [1]	inhibition at 100 µM ([2]; Homo sapiens) [%]	% Inhibition of Aβ42 Secretion @ 100 μM [2]
Cc1c(-c2ccccc2)cc(-c2ccccc2)n1-c1cccc(OCC(=O)O)c1 [Compound 26, [3-(2-Methyl-3,5-diphenyl-pyrrol-1-yl)-phenoxy]-acetic acid]	42		21		94		147	
CC(C)c1c(-c2ccccc2)cc(-c2ccccc2)n1-c1cccc(CCC(=O)O)c1 [Compound 31, 3-[3-(2-Isopropyl-3,5-diphenyl-pyrrol-1-yl)-phenyl]-propionic acid]	23		21		106		95	
O=C(O)CCc1cccc(-n2c(-c3ccccc3)cc(-c3ccccc3)c2C2CC2)c1 [Compound 34, 3-[3-(2-Cyclopropyl-3,5-diphenyl-pyrrol-1-yl)-phenyl]-propionic acid]	48		30		100		95	
CC(C)c1c(-c2ccccc2)cc(-c2ccccc2)n1-c1cccc(C(=O)O)c1 [Compound 30, 3-(2-Isopropyl-3,5-diphenyl-pyrrol-1-yl)-benzoic acid]	22		15		101		99	
Cc1c(-c2cccc(C(F)(F)F)c2)cc(-c2ccccc2)n1-c1cccc(CCC(=O)O)c1 [Compound 9, 3-{3-[2-Methyl-5-phenyl-3-(3-trifluoromethyl-phenyl)-pyrrol-1-yl]-phenyl}-propionic acid]	28		15		86		82	
O=C(O)c1cccc(-n2c(-c3ccccc3)cc(-c3ccccc3)c2C2CC2)c1 [Compound 33, 3-(2-Cyclopropyl-3,5-diphenyl-pyrrol-1-yl)-benzoic acid]	74	79 µM	21	24	73	73, 73%	89	86%
CCOC(=O)c1cc(CCc2ccccc2)n(-c2cccc(C(=O)O)c2)c1-c1ccccc1 [Compound 20, 1-(3-Carboxy-phenyl)-5-phenethyl-2-phenyl-1H-pyrrole-3-carboxylic acid ethyl ester]	> 100		21		49		95	
CCOC(=O)c1cc(CCc2ccccc2)n(-c2cccc(CCC(=O)O)c2)c1-c1ccccc1 [Compound 21, 1-[3-(2-Carboxy-ethyl)-phenyl]-5-phenethyl-2-phenyl-1H-pyrrole-3-carboxylic acid ethyl ester]	> 100		55		38		66	
Cc1c(-c2ccccc2)cc(-c2ccc(C(F)(F)F)cc2)n1-c1cccc(C(=O)O)c1 [Compound 14, 3-[2-Methyl-3-phenyl-5-(4-trifluoromethyl-phenyl)-pyrrol-1-yl]-benzoic acid]							96	101% and 99% and 92%

Continued, in another order:

IC50 ([1]; Homo sapiens) [µM]	IC50 [1]	IC50 ([2]; Homo sapiens) [µM]	IC50 [2] [µM]	Structure (SMILES)	inhibition at 100 µM ([1]; Homo sapiens) [%]	% Inhibition of Aβ40 Secretion @ 100 μM [1]	inhibition at 100 µM ([2]; Homo sapiens) [%]	% Inhibition of Aβ42 Secretion @ 100 μM [2]
63	37 µM	10	7	CC(C)(C)Cc1c(-c2ccccc2)cc(-c2ccccc2)n1-c1ccc(CCCC(=O)O)cc1 [Compound 38, 4-{4-[2-(2,2-Dimethyl-propyl)-3,5-diphenyl-pyrrol-1-yl]-phenyl}-butyric acid]	88	104%	94	101%
100		52		O=C(O)CCc1cccc(-n2c(CCc3ccccc3)ccc2-c2ccccc2)c1 [Compound 24, 3-[3-(2-Phenethyl-5-phenyl-pyrrol-1-yl)-phenyl]-propionic acid]	52		73	
40		55		CCOC(=O)c1cc(CCc2ccccc2)n(-c2ccc(CCCC(=O)O)cc2)c1-c1ccccc1 [Compound 22, 1-[4-(3-Carboxy-propyl)-phenyl]-5-phenethyl-2-phenyl-1H-pyrrole-3-carboxylic acid ethyl ester]	65		68	
> 100	65 µM			Cc1c(-c2ccccc2)cc(-c2ccc(Cl)c(Cl)c2)n1-c1ccc(CCCC(=O)O)cc1 [Compound 19, 4-{4-[5-(3,4-Dichloro-phenyl)-2-methyl-3-phenyl-pyrrol-1-yl]-phenyl}-butyric acid]		42% and 78%	95	109%
> 100		> 100		O=C(O)CCCc1ccc(-n2c(CCc3ccccc3)ccc2-c2ccccc2)cc1 [Compound 25, 4-[4-(2-Phenethyl-5-phenyl-pyrrol-1-yl)-phenyl]-butyric acid]	30		40	
		5	10	Cc1c(-c2ccccc2)cc(-c2ccc(C(F)(F)F)cc2)n1-c1ccc(CCCC(=O)O)cc1 [Compound 16, 4-{4-[2-Methyl-3-phenyl-5-(4-trifluoromethyl-phenyl)-pyrrol-1-yl]-phenyl}-butyric acid]	78	93%	97	102%
82		21		Cc1c(-c2ccccc2)cc(-c2ccc(C(F)(F)F)cc2)n1-c1cccc(CCC(=O)O)c1 [Compound 15, 3-{3-[2-Methyl-3-phenyl-5-(4-trifluoromethyl-phenyl)-pyrrol-1-yl]-phenyl}-propionic acid]	63		96	
79	68 µM	29	24	O=C(O)CCCc1ccc(-n2c(-c3ccccc3)cc(-c3ccccc3)c2C2CC2)cc1 [Compound 35, 4-[4-(2-Cyclopropyl-3,5-diphenyl-pyrrol-1-yl)-phenyl]-butyric acid]		73% and 96%	83	93%
> 100	69 µM and 68 µM			CCc1c(-c2ccccc2)cc(-c2ccccc2)n1-c1cccc(C(=O)O)c1 [Compound 11, 3-(2-Ethyl-3,5-diphenyl-pyrrol-1-yl)-benzoic acid]			92	94% and 78%
70		23		O=C(O)c1cccc(-n2c(CCc3ccccc3)ccc2-c2ccccc2)c1 [Compound 23, 3-(2-Phenethyl-5-phenyl-pyrrol-1-yl)-benzoic acid]	67		77	
33		14		O=C(O)CCCc1ccc(-n2c(-c3ccccc3)cc(-c3ccccc3)c2C2CCCCC2)cc1 [Compound 29, 4-[4-(2-Cyclohexyl-3,5-diphenyl-pyrrol-1-yl)-phenyl]-butyric acid]	103		102	
> 32		80		Cc1c(-c2ccccc2)cc(-c2ccccc2)n1-c1ccc(OCCC(=O)O)cc1 [Compound 28, 3-[4-(2-Methyl-3,5-diphenyl-pyrrol-1-yl)-phenoxy]-propionic acid]	32		55	
